Values after ≈ are worked out from the molar mass of the structure shown. Read-outs that look alike come from different tables or passages of the source. Bounds are passed on as bounds.

This note sets out measurements from patent US11780838B1, “Pyrrolo[3,2-b]quinoline compounds as antibacterial agents” (King Faisal University, priority 2023, dated 2023).

For assay [1], the target named is T1, DNA gyrase from E. coli (Escherichia coli, UniProt P0AES4+P0AES6).
T1 construct: purchased Inspiralis
The experiment in a line: Inhibitory activities on E. coli DNA gyrase (Inspiralis assay). It counts as biochemical. As to the method:
Inhibitory potencies were investigated utilizing the Inspiralis assay on streptavidin-coated 96-well microtiter plates. First, the plates were rehydrated with buffer (20 mM Tris-HCl with pH 7.6, 0.01% w/v BSA, 0.05% v/v Tween 20, 137 mM NaCl) and the biotinylated oligonucleotide was then immobilized. After washing off the unbound oligonucleotide, the enzyme test was performed. […] Reaction solutions were incubated at 37° C. for 30 min. After that, the TF buffer (50 mM NaOAc with pH 5.0, 50 mM NaCl and 50 mM MgCl2) was added to terminate the enzymatic reaction. After additional incubation for 30 min at rt, during which biotinoligonucleotide-plasmid triplex was formed, the unbound plasmid was washed off using TF buffer and SybrGOLD in T10 buffer (10 mM Tris HCl with pH 8.0 and 1 mM EDTA) was added. The fluorescence was measured with a microplate reader (BioTek Synergy H4, excitation: 485 nm, emission: 535 nm). Initial screening was done at 100 or 10 μM concentration of inhibitors. […] GraphPad Prism software was used to calculate the IC50 values. The result is given as the average value of three independent measurements.

Assay [2] concerns Mycobacterium tuberculosis H37Rv strain. The experiment in a line: Anti-tubercular properties (alamar blue microplate MIC). The format is cell-based. To be noted: 168 h, seven days at 37° C., read-out: anti-mycobacterial activity (MIC). On the technique in general: Alamar Blue is a resazurin reagent that responds to reducing activity.
The test system of assay [3] is Klebsiella pneumonia MTCC 618. The experiment in a line: In vitro antibacterial activity (MIC, CLSI M07-A10 dilution). It counts as cell-based. As to conditions: Klebsiella pneumoniae, MTCC618.
Assay [4] deals with Escherichia coli MTCC 443. The assay is described as above. The format is cell-based. As to conditions: MTCC443.
Assay [5] deals with Enterococcus faecium ATCC 51559 (VRE resistant). The assay is described as above. It counts as cell-based.
In assay [6] the test system is Bacillus subtilis MTCC 441. The assay is described as above. As to conditions: MTCC441. It counts as cell-based.
Assay [7] relates to Pseudomonas aeruginosa MTCC 741. The description is as above. The format is cell-based. As to conditions: MTCC741.
The test system of assay [8] is Staphylococcus aureus ATCC 29213. The assay is described as above. It counts as cell-based. To be noted: ATCC29213.
Assay [9] has as its system Enterococcus faecium ATCC 35667. Described as above. It counts as cell-based. As to conditions: ATCC35667.
Assay [10] relates to Staphylococcus aureus ATCC BAA-1556 (MERSA resistant). Described as above. The format is cell-based. As to conditions: ATCCBAA1556.
In assay [11] the test system is Staphylococcus epidermidis. The assay is described as above. The format is cell-based.

T1 sequence (P0AES4 whole entry, one chain of several): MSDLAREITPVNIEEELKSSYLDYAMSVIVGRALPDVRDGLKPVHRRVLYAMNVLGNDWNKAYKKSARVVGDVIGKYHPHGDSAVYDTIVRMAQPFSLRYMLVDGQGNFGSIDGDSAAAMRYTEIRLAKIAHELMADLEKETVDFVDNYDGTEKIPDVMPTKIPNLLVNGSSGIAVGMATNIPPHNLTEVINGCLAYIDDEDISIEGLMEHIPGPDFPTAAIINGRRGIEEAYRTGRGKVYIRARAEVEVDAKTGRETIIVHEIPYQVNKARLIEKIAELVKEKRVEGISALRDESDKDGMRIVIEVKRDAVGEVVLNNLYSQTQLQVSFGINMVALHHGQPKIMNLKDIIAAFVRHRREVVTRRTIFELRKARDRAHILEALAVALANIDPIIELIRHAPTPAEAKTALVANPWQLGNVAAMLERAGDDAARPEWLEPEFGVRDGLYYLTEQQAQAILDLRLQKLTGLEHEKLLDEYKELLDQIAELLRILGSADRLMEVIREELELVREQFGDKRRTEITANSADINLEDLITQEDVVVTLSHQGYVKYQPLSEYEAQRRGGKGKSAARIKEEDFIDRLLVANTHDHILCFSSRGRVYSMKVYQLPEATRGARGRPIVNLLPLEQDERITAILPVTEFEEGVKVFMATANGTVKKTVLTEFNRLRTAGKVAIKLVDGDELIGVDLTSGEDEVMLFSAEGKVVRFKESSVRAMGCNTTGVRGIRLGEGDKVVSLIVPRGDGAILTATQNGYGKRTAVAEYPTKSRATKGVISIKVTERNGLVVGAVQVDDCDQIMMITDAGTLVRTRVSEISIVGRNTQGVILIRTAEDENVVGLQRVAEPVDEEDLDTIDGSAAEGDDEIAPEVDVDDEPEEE

As usually defined, the IC50 is the concentration that inhibits the measured activity by half. A word on the MIC: it is the least concentration at which growth counts as inhibited. For the compound `CNc1cc(F)cc2cc3[nH]c(-c4ccc(C(=O)O)cc4CN(C)C4CCCCC4)cc3nc12` [Compound 4, 3-((cyclohexyl(methyl)amino)methyl)-4-(7-fluoro-5-(methylamino)-1H-pyrrolo[3,2-b]quinolin-2-yl)benzoic acid], the IC50 in assay [1] worked out at 32 nM. Moreover, in assay [2], the minimal inhibitory concentration (MIC) turned out to be 8 µg/mL (≈ 17.4 µM).
`CN[C@H](CC(C)C)C(=O)N[C@H]1C(=O)N[C@@H](CC(N)=O)C(=O)N[C@H]2C(=O)N[C@H]3C(=O)N[C@H](C(=O)N[C@H](C(=O)O)c4cc(O)cc(O)c4-c4cc3ccc4O)[C@H](O)c3ccc(c(Cl)c3)Oc3cc2cc(c3O[C@@H]2O[C@H](CO)[C@@H](O)[C@H](O)[C@H]2O[C@H]2C[C@](C)(N)[C@H](O)[C@H](C)O2)Oc2ccc(cc2Cl)[C@H]1O` [Vancomycin, reference compound]: the MIC in assay [3] is > 128 µg/mL.
In the case of `CCCCCN(C)Cc1cc(C(=O)O)ccc1-c1cc2nc3c(NC)cc(F)cc3cc2[nH]1` [Compound 6, 4-(7-fluoro-5-(methylamino)-1H-pyrrolo[3,2-b]quinolin-2-yl)-3-((methyl(pentyl)amino)methyl)benzoic acid], the MIC came out at 8 µg/mL (≈ 17.8 µM) in assay [4]; 1.25 µg/mL (≈ 2.79 µM) in assay [5]; 0.75 µg/mL (≈ 1.67 µM) in assay [6]; 1 µg/mL (≈ 2.23 µM) in assay [7]; 1 µg/mL (≈ 2.23 µM) in assay [8]; 1 µg/mL (≈ 2.23 µM) in assay [9]. The minimum inhibitory concentration (MIC) came out at 1 µg/mL (≈ 2.23 µM) in assay [10]; 1 µg/mL (≈ 2.23 µM) in [11]; 1.25 µg/mL (≈ 2.79 µM) in [3] (Klebsiella pneumonia MTCC 618, read-out: MIC).
